Reference: ChEMBL document CHEMBL1201862, “PubChem BioAssay data set” (2004)
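Method: 48-hour compound exposure of cells in 96-well plates, five concentrations, linear interpolation of endpoints. GI50 marks 50% less growth.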 Calls of active or inactive are those of the source. No stated cut-off is given here; in the data, active = GI50 up to about 1.1 µM and inactive = higher.

Assays:
Experiment in all cases: growth of human tumour cells (NCI), 48 h
[1] = tested on: HCC 2998
[2] = tested on: HCT-116
[3] = tested on: SNB-75
[4] = tested on: OVCAR-5
[5] = tested on: ACHN
[6] = tested on: SW-620
[7] = tested on: M14
[8] = tested on: RPMI-8226
[9] = tested on: SF-295
[10] = tested on: NCI/ADR-RES
[11] = tested on: HCT-15
[12] = tested on: SF-268
[13] = tested on: EKVX
[14] = tested on: MDA-MB-435
[15] = tested on: IGROV-1
[16] = tested on: UO-31
[17] = tested on: K562
[18] = tested on: RXF 393
[19] = tested on: HOP-62
[20] = tested on: SK-MEL-2

In the case of `CN(C)/C=C/c1nnnn1-c1ccc(I)cc1`, the GI50 [1] is reported as 39.6 µM (inactive), the GI50 [2] is reported as 10.5 µM (inactive) and the GI50 [3] is reported as 11.1 µM (inactive). For the same compound, the GI50 [4] was 23.7 µM (inactive), the GI50 [5] was 22 µM (inactive) and the GI50 [6] was 15.3 µM (inactive). The GI50 [7] was 14.3 µM (inactive), the GI50 [8] was 12.8 µM (inactive) and the GI50 [9] was 25.8 µM (inactive). For the same compound, the GI50 [10] was 23.8 µM (inactive), the GI50 [11] was 13.5 µM and the GI50 [12] was 17.5 µM (inactive). The GI50 [13] was 21.6 µM (inactive), the GI50 [14] was 20.5 µM (inactive) and the GI50 [15] was 15.6 µM (inactive). The GI50 [16] was 17.6 µM (inactive), the GI50 [17] was 19 µM (inactive) and the GI50 [18] was 28 µM (inactive). The GI50 [19] was 31.8 µM (inactive).
With `NC(CCCCCP(=O)(c1ccccc1)C1C=CC=CC1)C(=O)O` (configuration not stated) the GI50 [1] was > 10 µM (inactive), the GI50 [2] was > 100 µM (inactive) and the GI50 [3] was > 100 µM (inactive). The GI50 [4] was > 100 µM (inactive), the GI50 [5] was > 100 µM (inactive) and the GI50 [6] was > 100 µM (inactive). The GI50 [7] was > 100 µM (inactive), the GI50 [8] was > 100 µM (inactive) and the GI50 [9] was > 100 µM (inactive). The GI50 [10] was > 100 µM (inactive), the GI50 [11] was over 100 µM and the GI50 [12] was > 100 µM (inactive). For the same compound, the GI50 [13] was > 100 µM (inactive), the GI50 [20] was > 100 µM (inactive) and the GI50 [14] was > 100 µM (inactive). The GI50 [15] was > 100 µM (inactive), the GI50 [16] was > 100 µM (inactive) and the GI50 [17] was > 100 µM (inactive). The GI50 [18] was > 100 µM (inactive).
In the case of `CCOC(=O)c1sc2nc(SC)nc3c2c1NCN3C`, the GI50 [1] is reported as 62.1 µM (inactive), the GI50 [2] is reported as 22 µM (inactive) and the GI50 [3] is reported as 5.78 µM (inactive). The GI50 [4] was 36.1 µM (inactive), the GI50 [5] was 18.7 µM (inactive) and the GI50 [7] was 76.9 µM (inactive). The GI50 [8] was > 100 µM (inactive), the GI50 [9] was 27.9 µM (inactive) and the GI50 [10] was 19.6 µM (inactive). For the same compound, the GI50 [11] was over 100 µM, the GI50 [12] was 16.7 µM (inactive) and the GI50 [20] was 86.1 µM (inactive). The GI50 [14] was > 100 µM (inactive), the GI50 [15] was 13 µM (inactive) and the GI50 [16] was 11.9 µM (inactive). For the same compound, the GI50 [18] was 13.2 µM (inactive) and the GI50 [19] was 15.1 µM (inactive).
In the case of `CSc1c(C#N)c(=O)n(N)c2[nH]nc(C)c12`, the GI50 [1] is reported as > 100 µM (inactive), the GI50 [2] is reported as > 100 µM (inactive) and the GI50 [3] is reported as > 100 µM (inactive). The GI50 [6] was > 100 µM (inactive), the GI50 [8] was > 100 µM (inactive) and the GI50 [10] was > 100 µM (inactive). The GI50 [11] was over 100 µM, the GI50 [12] was > 100 µM (inactive) and the GI50 [13] was > 100 µM (inactive). For the same compound, the GI50 [20] was > 100 µM (inactive), the GI50 [14] was > 100 µM (inactive) and the GI50 [16] was > 100 µM (inactive). The GI50 [17] was > 100 µM (inactive) and the GI50 [18] was > 100 µM (inactive).
With `CN1CCCOC(c2ccc([N+](=O)[O-])cc2)O1` (configuration not stated) the GI50 [1] was > 100 µM (inactive), the GI50 [2] was > 100 µM (inactive) and the GI50 [3] was > 100 µM (inactive). For the same compound, the GI50 [4] was > 100 µM (inactive), the GI50 [5] was > 100 µM (inactive) and the GI50 [6] was > 100 µM (inactive). The GI50 [7] was > 100 µM (inactive), the GI50 [9] was > 100 µM (inactive) and the GI50 [10] was > 100 µM (inactive). For the same compound, the GI50 [11] was over 100 µM, the GI50 [12] was > 100 µM (inactive) and the GI50 [13] was > 100 µM (inactive). The GI50 [20] was > 100 µM (inactive), the GI50 [14] was > 100 µM (inactive) and the GI50 [15] was > 100 µM (inactive). For the same compound, the GI50 [16] was > 100 µM (inactive), the GI50 [17] was > 100 µM (inactive) and the GI50 [18] was > 100 µM (inactive). For the same compound, the GI50 [19] was > 100 µM (inactive).
With `O=C(O)CC(O)(C(=O)O)C(O)C(=O)O` (configuration not stated) the GI50 [1] was > 1000 µM (inactive), the GI50 [2] was > 1000 µM (inactive) and the GI50 [3] was > 1000 µM (inactive). The GI50 [4] was > 1000 µM (inactive), the GI50 [5] was > 1000 µM (inactive) and the GI50 [6] was > 1000 µM (inactive). For the same compound, the GI50 [7] was > 1000 µM (inactive), the GI50 [8] was 787 µM (inactive) and the GI50 [9] was > 1000 µM (inactive). The GI50 [10] was > 1000 µM (inactive), the GI50 [11] was over 1000 µM and the GI50 [12] was > 1000 µM (inactive). For the same compound, the GI50 [13] was > 1000 µM (inactive), the GI50 [20] was > 1000 µM (inactive) and the GI50 [14] was 826 µM (inactive). For the same compound, the GI50 [15] was > 1000 µM (inactive), the GI50 [17] was > 1000 µM (inactive) and the GI50 [18] was > 1000 µM (inactive). For the same compound, the GI50 [19] was > 1000 µM (inactive).
